# Source: patent EP0533849B1 (ROUSSEL UCLAF, priority 1991, dated 1992)
# Target: Sucrose Phosphate Synthase (Zea mays, UniProt P31927)
# Conditions: phosphate gradient of the HAC (hydroxyapatite) stage
# Procedure: During purification SPS activity is followed in 2 ways : • a) either by means of a colorimetric test (P.S. Kerr et al., Planta., 1987, 170 : 515-519) called resorcinol test described below. […] In practice, to 45 µl (microliter) of enzymatic preparation 25 µl of a buffered solution containing the two substrates is added (UDPG 70 mM, F6P 28 mM, MgCl2 15 mM, HEPES 25 mM pH 7,5). After incubation at 37°C, reaction is stopped by adding 70 µl of NaOH in solution and heating at 95°C during 10 mn. After cooling, 0,25 ml of a solution 0,1 % resorcinol in ethanol 95 % is added, then 0,75 ml of HCl 30 % is added. The OD 520 mM is read after incubation 8 mn at 80 mn, and cooling. • b) or by means of a coupled enzymatic system (S. Harbron et al., Anal. Biochem. 1980, 107 : 56-59) being composed in the following way : [drawing 3]
# The disappearance of the NADH absorption at 340 nm is monitored 1 mole of NAD formed or 1 mole of NADH consumed corresponds to 1 mole of sucrose 6 P formed.
# In pratice, in a quartz spectrophotometric tun thermostated at 37°C, the following solution are added. • 540 µl of HEPES buffered 50 mM, MgCl2 10 mM KCl 20 mM pH=7.5, • 250 µl of a mixture of substrates PEP (1,6 mM NaDH 0,6 mM, ATP 4 mM UDPG 112 mM), • 60 µl of an enzyme mixture (LDH 166,7 U/ml PK 333,3 U/ml, NPzK 66,7 U/ml), • 100 µl of F6P 112 mM. […]
# Sucrose Phosphate Synthase, sequence (P31927 whole entry): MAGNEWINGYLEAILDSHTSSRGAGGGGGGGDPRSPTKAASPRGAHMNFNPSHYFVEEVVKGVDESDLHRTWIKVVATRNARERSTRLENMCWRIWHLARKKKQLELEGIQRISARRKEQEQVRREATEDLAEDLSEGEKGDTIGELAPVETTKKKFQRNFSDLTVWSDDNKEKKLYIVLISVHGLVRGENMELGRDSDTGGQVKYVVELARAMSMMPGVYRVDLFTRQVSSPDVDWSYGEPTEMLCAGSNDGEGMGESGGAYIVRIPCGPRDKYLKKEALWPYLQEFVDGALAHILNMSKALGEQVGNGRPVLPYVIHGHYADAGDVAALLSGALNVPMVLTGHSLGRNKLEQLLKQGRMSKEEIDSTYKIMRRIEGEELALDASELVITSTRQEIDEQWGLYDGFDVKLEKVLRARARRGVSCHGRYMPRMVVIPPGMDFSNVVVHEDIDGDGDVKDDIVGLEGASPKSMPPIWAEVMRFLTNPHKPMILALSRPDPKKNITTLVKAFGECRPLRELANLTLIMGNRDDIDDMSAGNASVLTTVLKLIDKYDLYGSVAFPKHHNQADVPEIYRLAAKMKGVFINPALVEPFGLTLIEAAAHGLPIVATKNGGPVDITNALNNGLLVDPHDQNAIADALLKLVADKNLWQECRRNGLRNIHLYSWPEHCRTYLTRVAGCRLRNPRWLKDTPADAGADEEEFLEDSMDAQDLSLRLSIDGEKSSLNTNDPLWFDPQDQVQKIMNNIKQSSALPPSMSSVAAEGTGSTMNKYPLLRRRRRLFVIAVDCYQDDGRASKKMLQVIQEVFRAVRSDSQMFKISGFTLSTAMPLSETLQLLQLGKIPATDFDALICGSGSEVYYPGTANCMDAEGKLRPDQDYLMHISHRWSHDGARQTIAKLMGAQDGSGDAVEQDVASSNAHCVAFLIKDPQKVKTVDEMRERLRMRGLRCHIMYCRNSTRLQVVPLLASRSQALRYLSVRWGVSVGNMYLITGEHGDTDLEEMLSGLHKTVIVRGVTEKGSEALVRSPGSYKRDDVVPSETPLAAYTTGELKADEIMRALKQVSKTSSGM
substance,measurement,value
phosphate,inhibition of SPS activity,partially inhibit SPS activity
